Measurements taken from ChEMBL document CHEMBL1147921, “SAR studies on thiazolo[4,5-d]pyrimidine based CXCR2 antagonists involving a novel tandem displacement reaction” (Bioorg Med Chem Lett, 2007).
Converted amounts (≈) assume the structure as drawn.

Tests used:
[1] = molecular target: T1, C-X-C chemokine receptor type 2 (Homo sapiens, UniProt P25025); assay: Displacement of [125I]IL8 from human CXCR2 expressed in HEK 293 by SPA; format: cell-based, HEK293
T1 sequence (P25025 whole entry): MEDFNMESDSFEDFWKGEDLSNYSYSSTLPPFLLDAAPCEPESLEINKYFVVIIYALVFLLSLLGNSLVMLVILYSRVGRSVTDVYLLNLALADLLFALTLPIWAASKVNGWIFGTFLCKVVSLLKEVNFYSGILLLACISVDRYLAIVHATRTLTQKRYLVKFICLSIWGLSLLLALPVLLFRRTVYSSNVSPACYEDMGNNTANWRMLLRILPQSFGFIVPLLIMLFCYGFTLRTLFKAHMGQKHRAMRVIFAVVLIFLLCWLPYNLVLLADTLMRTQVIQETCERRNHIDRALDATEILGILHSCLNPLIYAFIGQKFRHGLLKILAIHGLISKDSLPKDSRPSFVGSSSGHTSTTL

[2] = Volume of distribution at steady state in iv dosed rat; format: ADME, organism-based; conditions: in vivo, read-out: Vss
[3] = Half life in iv dosed rat; format: ADME, organism-based; conditions: in vivo
[4] = Bioavailability in po dosed rat; format: ADME, organism-based; conditions: in vivo
[5] = Solubility at pH 7.4; format: physicochemical; conditions: buffer
[6] = Permeability from apical to basolateral side of the human Caco-2 cell membrane; format: ADME, cell-based; conditions: read-out: permeability
[7] = Permeability from basolateral to apical side of the human Caco-2 cell membrane; format: ADME, cell-based; conditions: read-out: permeability
[8] = molecular target: T1, C-X-C chemokine receptor type 2; assay: Antagonistic activity against human CXCR2 in neutrophils assessed as blockade of GROalpha stimulated calcium mobilisation by FLIPR; format: functional
[9] = Protein binding in human plasma; format: ADME, cell-free; conditions: read-out: PPB (converted)
[10] = Permeability across human Caco-2 cell membrane; format: ADME, cell-based; conditions: read-out: permeability

Row | Structure (SMILES) | IC50 [1] | other results
1 | C[C@H](CO)Nc1nc(SCc2ccco2)nc2nc(N)sc12 | 31.6 nM | 
2 | C[C@H](CO)Nc1nc(SCc2cccc(F)c2F)nc2nc(N)sc12 |  | Vd [2]: 1.03 L/kg; half-life [3]: 1.2 h; bioavailability [4]: 9%; solubility [5]: 1.5 µg/mL (≈ 3.91 µM); Papp A→B [6]: 2.47 ×10⁻⁶ cm/s; Papp B→A [7]: 13.7 ×10⁻⁶ cm/s
3 | C[C@H](CO)Nc1nc(SCc2ccccc2F)nc2nc(N)sc12 | 12.6 nM | 
4 | Cc1nc(CSc2nc(NC(C)(C)CO)c3sc(N)nc3n2)cs1 | 1000 nM | 
5 | C[C@H](CO)Nc1nc(SCc2cccc(Cl)c2Cl)nc2nc(N)sc12 | 15.8 nM | 
6 | CC(C)(CO)Nc1nc(SCc2ccco2)nc2nc(N)sc12 | 100 nM | 
7 | C[C@H](CO)Nc1nc(SCc2cccc(Cl)c2F)nc2nc(N)sc12 | 3.98 nM | 
8 | Nc1nc2nc(SCc3cccc(F)c3F)nc(N3CCCC3CO)c2s1 (configuration not stated) | > 1000 nM | 
9 | C[C@H](CO)Nc1nc(SCc2ccccc2Cl)nc2nc(N)sc12 | 31.6 nM | 
10 | OCC(CO)Nc1nc(SCc2cccc(F)c2F)nc2nc(NC3CC3)sc12 | 100 nM | 
11 | C[C@H](CO)Nc1nc(SCc2cccc(F)c2)nc2nc(N)sc12 | 15.8 nM | 
12 | CC(CO)(CO)Nc1nc(SCc2cccc(F)c2F)nc2nc(N)sc12 | 79.4 nM | 
13 | Cc1nc(CSc2nc(N[C@H](C)CO)c3sc(N)nc3n2)cs1 | 126 nM | 
14 | Nc1nc2nc(SCc3cccc(F)c3F)nc(NC(CO)CO)c2s1 | 31.6 nM | 
15 | CC(C)(CO)Nc1nc(SCc2cccc(F)c2F)nc2nc(N)sc12 | 25.1 nM | IC50 [8]: 15.8 nM; fraction unbound [9]: 0.016; Papp [10]: 3.6 ×10⁻⁶ cm/s
16 | C[C@H](CO)Nc1nc(SCc2cccc(Cl)c2)nc2nc(N)sc12 | 12.6 nM | 

More lines, main results first:

Row | IC50 [1] | Structure (SMILES) | other results
17 | 7.94 nM | CNc1nc2nc(SCc3cccc(F)c3F)nc(N[C@H](C)CO)c2s1 | 
18 | 1580 nM | CCN(CC)c1nc2nc(SCc3cccc(F)c3F)nc(NC(CO)CO)c2s1 | 
19 | 100 nM | CC[C@H](CO)Nc1nc(SCc2cccc(F)c2F)nc2nc(NC(C)C)sc12 | 
20 | 398 nM | CCN(CC)c1nc2nc(SCc3cccc(F)c3F)nc(N[C@H](C)CO)c2s1 | 
21 | 15.8 nM | C[C@@H](O)[C@@H](CO)Nc1nc(SCc2cccc(F)c2F)nc2nc(N)sc12 | 
22 | 31.6 nM | CC(C)Nc1nc2nc(SCc3cccc(F)c3F)nc(N[C@H](C)CO)c2s1 | 
23 | 25.1 nM | CC[C@H](CO)Nc1nc(SCc2cccc(F)c2F)nc2nc(N)sc12 | 
24 | 20 nM | C[C@H](CO)Nc1nc(SCc2cccc(F)c2F)nc2nc(NC3CC3)sc12 | 
